# US10875851B2, “Factor XIIa inhibitors” (Merck Sharp & Dohme Corp., priority 2016, dated 2020)
# Molecular target: human Factor XIIa (Homo sapiens (Human), UniProt P00748)
# Assay: Factor XIIa Assay
# Format: biochemical
# Settings: purified human Factor XIIa 500 pM; substrate n-Acetyl-Lys-Pro-Arg-AFC 100 μM; pH 7.4; read-out: FXIIa IC50
# In short: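 Purified human FXIIa at 500 pM final with 100 μM n-Acetyl-Lys-Pro-Arg-AFC in 50 mM HEPES, 150 mM NaCl, 5 mM CaCl2, 0.1% PEG 8000, pH 7.4, at room temperature or 37° C. Initial fluorogenic hydrolysis rates measured after enzyme–inhibitor equilibration; IC50 taken where Vi=Vo/2.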
# Sequence of human Factor XIIa (P00748 373-615): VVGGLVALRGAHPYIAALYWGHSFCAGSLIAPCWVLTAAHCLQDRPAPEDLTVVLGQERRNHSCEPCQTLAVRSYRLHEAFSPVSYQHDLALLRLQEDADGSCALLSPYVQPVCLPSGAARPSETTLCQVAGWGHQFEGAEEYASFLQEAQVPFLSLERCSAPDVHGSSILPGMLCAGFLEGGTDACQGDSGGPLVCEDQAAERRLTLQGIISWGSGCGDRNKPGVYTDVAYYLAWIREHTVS
row,IC50,Compound
1,9.4 nM,"C[C@H]1N=C(N2CCN(C(=O)[C@@H](CCCCN(C)C)NC3CCC4(CC3)CCN(Cc3ccccc3)C4)[C@H](C(=O)NCc3cccs3)C2)O[C@@H]1c1ccccc1 (stereo partly drawn) [Example 143, (2S)-1[N^2-(2-benzyl-2-azaspiro[4.5]dec-8-yl)-N^6,N^6-dimethyl-D-lysyl]-4-[(4R,5R)-4-methyl-5-phenyl-4,5-dihydro-1,3-oxazol-2-yl]-N-(thiophen-2-ylmethyl)piperazine-2-carboxamide]"
2,6.6 nM,"C[C@@H]1N=C(N2CCN(C(=O)[C@@H](CCCCN(C)C)NC3CCC(CN)CC3)[C@H](C(=O)NCc3cccs3)C2)O[C@H]1c1ccccc1 (stereo partly drawn) [Example 133, (2S)-1-{N^2-[4-(aminomethyl)cyclohexyl]-N^6,N^6-dimethyl-D-lysyl}-4-[(4S,5S)-4-methyl-5-phenyl-4,5-dihydro-1,3-oxazol-2-yl]-N-(thiophen-2-ylmethyl)piperazine-2-carboxamide]"
3,10.3 nM,"Cc1cccc([C@@H]2OC(N3CCN(C(=O)[C@@H](CCCCNS(C)(=O)=O)NC4CCCCC4)[C@H](C(=O)NCc4cccs4)C3)=N[C@H]2C)c1 [Example 134, (2S)-1-[N^2-cyclohexyl-N^6-(methylsulfonyl)-D-lysyl]-4-[(4S,5S)-4-methyl-5-(3-methylphenyl)-4,5-dihydro-1,3-oxazol-2-yl]-N-(thiophen-2-ylmethyl)piperazine-2-carboxamide]"
4,0.8 nM,"C[C@@H]1N=C(N2CCN(C(=O)[C@@H](CCCCN(C)C)NC3CCC4(CC3)CCN(Cc3ccccc3)C4)[C@H](C(=O)NCc3cccs3)C2)O[C@H]1c1ccccc1 (stereo partly drawn) [Example 135, (2S)-1-[N^2-(2-benzyl-2-azaspiro[4.5]dec-8-yl)-N^6,N^6-dimethyl-D-lysyl]-4-[(4S,5S)-4-methyl-5-phenyl-4,5-dihydro-1,3-oxazol-2-yl]-N-(thiophen-2-ylmethyl)piperazine-2-carboxamide]"
5,12.7 nM,"CN(C)CCCC[C@H](C(=O)N1CCN(C2=NC(C)(C)C(c3ccccc3)O2)C[C@H]1C(=O)NCc1ccc(CN)c(F)c1)N(C)C (stereo partly drawn) [Example 148, (2S)-N-[4-(aminomethyl)-3-fluorobenzyl]-4-(4,4-dimethyl-5-phenyl-4,5-dihydro-1,3-oxazol-2-yl)-1-(N^2,N^2,N^6,N^6-tetramethyl-D-lysyl)piperazine-2-carboxamide]"
6,23.2 nM,"CC1(C)N=C(N2CCN(C(=O)[C@@H](CC3CCCCC3)NC3CCCCC3)[C@H](C(=O)NCc3cccs3)C2)OC1c1ccccc1 (stereo partly drawn) [Example 137, (2S)-1-(N,3-dicyclohexyl-D-alanyl)-4-(4,4-dimethyl-5-phenyl-4,5-dihydro-1,3-oxazol-2-yl)-N-(thiophen-2-ylmethyl)piperazine-2-carboxamide]"

# More lines, now with the values behind:
row,Compound,IC50
1,"NCc1ccc(CNC(=O)[C@@H]2CN(C(=O)Oc3ccccc3Cl)CCN2C(=O)[C@@H](CC2CCCCC2)NC2CCCCC2)cc1 [Example 5, 2-chlorophenyl (3S)-3-{[4-(aminomethyl)benzyl]carbamoyl}-4-(N,3-dicyclohexyl-D-alanyl)piperazine-1-carboxylate]",5.9 nM
2,"CS(=O)(=O)NCCCC[C@@H](NC1CCC2(CC1)CCN(Cc1ccccc1)C2)C(=O)N1CCN(C(=O)Oc2cccc3c2CCNC3)C[C@H]1C(=O)NCc1cccs1 (stereo partly drawn) [Example 81, 1,2,3,4-tetrahydroisoquinolin-5-yl (3S)-4-[N^2-(2-benzyl-2-azaspiro[4.5]dec-8-yl)-N^6-(methylsulfonyl)-D-lysyl]-3-[(thiophen-2-ylmethyl)carbamoyl]piperazine-1-carboxylate]",3.4 nM
3,"CN(C)CCCC[C@H](C(=O)N1CCN(C(=O)Cc2cccc3c2CCNC3)C[C@H]1C(=O)NCc1cccs1)N(C)C1CCC2(CC1)CCN(Cc1ccccc1)C2 (stereo partly drawn) [Example 96, (2S)-1-[N^2-(2-benzyl-2-azaspiro[4.5]dec-8-yl)-N^2,N^6,N^6-trimethyl-D-lysyl]-4-(1,2,3,4-tetrahydroisoquinolin-5-ylacetyl)-N-(thiophen-2-ylmethyl)piperazine-2-carboxamide]",11.9 nM
4,"C[C@@H]1N=C(N2CCN(C(=O)[C@@H](CCCCNS(C)(=O)=O)NC3CCCCC3)[C@H](C(=O)NCc3cccs3)C2)O[C@H]1c1ccccc1C#N [Example 127, (2S)-4-[(4S,5S)-5-(2-cyanophenyl)-4-methyl-4,5-dihydro-1,3-oxazol-2-yl]-1-[N^2-cyclohexyl-N^6-(methylsulfonyl)-D-lysyl]-N-(thiophen-2-ylmethyl)piperazine-2-carboxamide]",18.7 nM
5,"O=C(NCc1cccs1)[C@@H]1CN(C(=O)Oc2ccccc2Cl)CCN1C(=O)[C@@H](CCCCN1CCCCC1)NC1CCCCC1 [Example 97, 2-chlorophenyl (3S)-4-(N-cyclohexyl-6-piperidin-1-yl-D-norleucyl)-3-[(thiophen-2-ylmethyl)carbamoyl]piperazine-1-carboxylate]",0.7 nM
6,"C[C@@H]1N=C(N2CCN(C(=O)[C@@H](CCCCNS(C)(=O)=O)NC3CCCCC3)[C@H](C(=O)NCc3cccs3)C2)O[C@H]1c1ccccc1 [Example 123, (2S)-1-[N^2-cyclohexyl-N^6-(methylsulfonyl)-D-lysyl]-4-[(4S,5S)-4-methyl-5-phenyl-4,5-dihydro-1,3-oxazol-2-yl]-N-(thiophen-2-ylmethyl)piperazine-2-carboxamide]",7 nM
7,"CC(C)S(=O)(=O)N1CCC([C@@H](NC2CCCCC2)C(=O)N2CCN(C(=O)Oc3ccccc3Cl)C[C@H]2C(=O)NCc2cccs2)CC1 [Example 63, 2-chlorophenyl (3S)-4-[(2R)-2-(cyclohexylamino)-2-{1-[(1-methylethyl)sulfonyl]piperidin-4-yl}acetyl]-3-[(thiophen-2-ylmethyl)carbamoyl]piperazine-1-carboxylate]",2.6 nM
8,"O=C(NCc1cccs1)[C@@H]1CN(C(=O)Oc2ccccc2Cl)CCN1C(=O)[C@@H](CCCCN1CCCS1(=O)=O)NC1CCCCC1 [Example 77, 2-chlorophenyl (3S)-4-[N-cyclohexyl-6-(1,1-dioxidoisothiazolidin-2-yl)-D-norleucyl]-3-[(thiophen-2-ylmethyl)carbamoyl]piperazine-1-carboxylate]",4.6 nM
